Assay results as given in patent US20120058085A1, “Deuterium Modified Benzimidazoles” (priority 2009, published 2012).
Read-outs that look alike come from different tables or passages of the source.

Assay: Evaluation of Metabolic Stability in Human Liver Microsomes
Assay type: in vitro ADME
Conditions: for percentage increase in half-life in going from clemizole to the test compound, run A / percentage increase in half-life in going from clemizole to the test compound, run B / percentage increase in half-life in going from clemizole to the test compound, run C / percentage increase in half-life in going from clemizole to the test compound, run D / percentage increase in half-life in going from clemizole to the test compound, Average: HLM, relative to clemizole; for half-life: human, microsomes
Description: Human liver microsomes (20 mg/mL) are obtained from Xenotech, LLC (Lenexa, KS). β-nicotinamide adenine dinucleotide phosphate, reduced form (NADPH), magnesium chloride (MgCl2), and dimethyl sulfoxide (DMSO) are purchased from Sigma-Aldrich.
Determination of Metabolic Stability: 7.5 mM stock solutions of test compounds are prepared in DMSO. The 7.5 mM stock solutions are diluted to 12.5 μM in acetonitrile (ACN). The 20 mg/mL human liver microsomes are diluted to 0.625 mg/mL in 0.1 M potassium phosphate buffer, pH 7.4, containing 3 mM MgCl2. The diluted microsomes (375 μL) are added to wells of a 96-well deep-well polypropylene plate in triplicate. Ten to 40 μL of the 12.5 μM test compound is added to the microsomes and the mixture is pre-warmed for 10 minutes. Reactions are initiated by addition of 125 μL of pre-warmed NADPH solution. The final reaction volume is 0.5 mL and contains 0.5 mg/mL human liver microsomes, 0.25-1.0 μM test compound, and 2 mM NADPH in 0.1 M potassium phosphate buffer, pH 7.4, and 3 mM MgCl2. The reaction mixtures are incubated at 37° C., and 50 μL aliquots are removed at 0, 5, 10, 20, and 30 minutes and added to shallow-well 96-well plates which contain 50 μL of ice-cold ACN with internal standard to stop the reactions. The plates are stored at 4° C. for 20 minutes after which 100 μL of water is added to the wells of the plate before centrifugation to pellet precipitated proteins. Supernatants are transferred to another 96-well plate and analyzed for amounts of parent compound remaining by LC-MS/MS using an Applied Bio-systems API 4000 mass spectrometer. The same procedure is followed for the non-deuterated counterpart of the compound of Formula I and the positive control, 7-ethoxycoumarin (1 μM). Testing is done in triplicate.
Data analysis: The in vitro half-lives (t1/2s) for test compounds are calculated from the slopes of the linear regression of % parent remaining (In) vs incubation time relationship using the following formula:
in vitro t1/2=0.693/k, where k=-[slope of linear regression of % parent remaining(1n) vs incubation time]
Data analysis is performed using Microsoft Excel Software.
Four separate metabolic stability runs were performed in Human Liver Microsomes (HLM) for clemizole and for test compounds of the invention. […] The values in parenthesis in columns A through D and in the “Average” column indicate the percentage increase in half-life in going from clemizole to the test compound.

[1] = pH 7.4, HLM 0.5 mg/mL, 2 mM NADPH, 37° C., run A, read-out: t½ (min) A
[2] = pH 7.4, HLM 0.5 mg/mL, 2 mM NADPH, 37° C., run B, read-out: t½ (min) B
[3] = pH 7.4, HLM 0.5 mg/mL, 2 mM NADPH, 37° C., run C, read-out: t½ (min) C
[4] = pH 7.4, HLM 0.5 mg/mL, 2 mM NADPH, 37° C., run D, read-out: t½ (min) D
[5] = pH 7.4, HLM, average of runs A-D, read-out: Ave t½

SMILES | percentage increase in half-life in going from clemizole to the test compound, run A (run A) | percentage increase in half-life in going from clemizole to the test compound, run B (run B) | percentage increase in half-life in going from clemizole to the test compound, run C (run C) | percentage increase in half-life in going from clemizole to the test compound, run D (run D) | half-life [1] [min] | half-life [2] [min] | half-life [3] [min] | half-life [4] [min] | half-life [5] [min] | percentage increase in half-life in going from clemizole to the test compound, Average (average of runs A-D)
[2H]C([2H])(c1nc2ccccc2n1C([2H])([2H])c1ccc(Cl)cc1)N1C([2H])([2H])C([2H])([2H])C([2H])([2H])C1([2H])[2H] [Compound 110, 1-(4-Chlorophenyl-d2-methyl)-2-(d2-(2,2,3,3,4,4,5,5-d8-pyrrolidin-1-yl)methyl)-1H-benzo[d]imidazole] | (+18%) | (+30%) | (+34%) | (+38%) | 15.8 | 18.2 | 17.8 | 17 | 17.2 | –
[2H]C([2H])(c1nc2ccccc2n1Cc1ccc(Cl)cc1)N1CCCC1 [Compound 101, 1-(4-Chlorobenzyl)-2-(d2-(pyrrolidin-1-yl)methyl)-1H-benzo[d]imidazole] | (+18%) | (+8%) | (+9%) | (+14%) | 15.9 | 15.2 | 14.4 | 14 | 14.9 | –
[2H]C1([2H])N(Cc2nc3ccccc3n2Cc2ccc(Cl)cc2)C([2H])([2H])C([2H])([2H])C1([2H])[2H] [Compound 102, 1-(4-Chlorobenzyl)-2-((2,2,3,3,4,4,5,5-d8-pyrrolidin-1-yl)methyl)-1H-benzo[d]imidazole] | (+41%) | (+38%) | (+32%) | (+36%) | 18.9 | 19.4 | 17.6 | 16.7 | 18.2 | –
Clc1ccc(Cn2c(CN3CCCC3)nc3ccccc32)cc1 [clemizole, 1-(p-chlorobenzyl)-2-(1-pyrrolidinylmethyl) benzimidazole, reference compound] | – | – | – | – | 13.5 | 14 | 13.3 | 12.3 | 13.3 | –
[2H]C([2H])(c1nc2ccccc2n1C([2H])([2H])c1ccc(Cl)cc1)N1CCCC1 [Compound 105, 1-(4-Chlorophenyl-d2-methyl)-2-(d2-(pyrrolidin-1-yl)methyl)-1H-benzo[d]imidazole] | (+0.9%) | (+6%) | (+6%) | (+13%) | 13.6 | 14.9 | 14 | 13.9 | 14 | (+6%)
[2H]C([2H])(c1ccc(Cl)cc1)n1c(CN2C([2H])([2H])C([2H])([2H])C([2H])([2H])C2([2H])[2H])nc2ccccc21 [Compound 106] | (+21%) | (+22%) | (+22%) | (+36%) | 16.2 | 17.2 | 16.2 | 16.7 | 16.6 | –
[2H]C1([2H])CCC([2H])([2H])N1Cc1nc2ccccc2n1Cc1ccc(Cl)cc1 [Compound 104] | (+15%) | (+16%) | (+17%) | (+27%) | 15.5 | 16.3 | 15.5 | 15.6 | 15.7 | –
[2H]C([2H])(c1ccc(Cl)cc1)n1c(CN2CCCC2)nc2ccccc21 [Compound 100, 1-(4-Chlorophenyl-d2-methyl)-2-(pyrrolidin-1-ylmethyl)-1H-benzo[d]imid-azole] | (+2%) | (+0.3%) | (+4%) | (+13%) | 13.7 | 14.1 | 13.8 | 13.8 | 13.9 | (+4%)
